The source of these data is patent US20180185370A1, “PYRAZINOQUINAZOLINONE DERIVATIVES WITH ANTIBACTERIAL ACTIVITY, METHODS AND USES THEREOF” (UNIVERSIDADE DO PORTO, priority 2015, published 2018).

In test [1] the test system is S. aureus B1. As to the kind of experiment: Broth microdilution Checkerboard method. Conditions: for combined effect with oxacillin: fiscalin C with oxacillin, MRSA (S. aureus B1). It counts as cell-based, Staphylococcus aureus. As for the experimental part: Synergistic studies between compounds and antibiotics. A screening susceptibility test to assess the combined effect between the compounds and antibiotics was conducted using the disc diffusion method on MH, against three multidrug-resistant isolates, E. coli G1, S. aureus B1 and E. faecalis W1. A set of antibiotic discs (Oxoid, Basingstoke, England) was selected based on the resistance of the isolates towards those antibiotics. […] The fractional inhibitory concentration (FIC) was calculated as follows: FIC of drug A (FIC A)=MIC of drug A in combination/MIC of drug A alone, and FIC of drug B (FIC B)=MIC of drug B in combination/MIC of drug B alone. The FIC index (ΣFIC), calculated as the sum of each FIC, was interpreted as follows: ΣFIC 0.5, synergy; 0.5<ΣFIC 4, no interaction; 4<ΣFIC, antagonism.
(Dilution methods test growth across graded concentrations, often in twofold steps.)

Test [2] concerns S. aureus B1. The experiment in a line: Synergy screening with antibiotic discs, disc diffusion method. It counts as cell-based, Staphylococcus aureus. To be noted: for inhibition zone: S. aureus B1. As to the method:
Synergistic studies between compounds and antibiotics. A screening susceptibility test to assess the combined effect between the compounds and antibiotics was conducted using the disc diffusion method on MH, against three multidrug-resistant isolates, E. coli G1, S. aureus B1 and E. faecalis W1. A set of antibiotic discs (Oxoid, Basingstoke, England) was selected based on the resistance of the isolates towards those antibiotics. Based on the results of the previous assay, an unexpected synergetic effect between fiscalin C (see FIG. 1I, equation v) and oxacillin (Sigma-Aldrich, St. Louis, Mo., USA) was determined using, in particular, a broth microdilution Checkerboard method against the MRSA isolate (S. aureus B1). The fractional inhibitory concentration (FIC) was calculated as follows: FIC of drug A (FIC A)=MIC of drug A in combination/MIC of drug A alone, and FIC of drug B (FIC B)=MIC of drug B in combination/MIC of drug B alone. The FIC index (ΣFIC), calculated as the sum of each FIC, was interpreted as follows: ΣFIC 0.5, synergy; 0.5<ΣFIC 4, no interaction; 4<ΣFIC, antagonism.

A further test relates to E. faecalis ATCC 29212. The experiment in a line: Antibacterial susceptibility testing, broth microdilution (MIC/MBC). Type of test: cell-based, Enterococcus faecalis. As to the method: (§1) Bacterial strains and growth conditions. Five reference strains, Staphylococcus aureus ATCC 25923, Bacillus subtilis ATCC 6633, E. faecalis ATCC 29212, Escherichia coli ATCC 25922 and Pseudomonas aeruginosa ATCC 27853, and three multidrug-resistant isolates from environment, S. aureus B1 (a MRSA isolated from public buses), Enterococcus faecalis W1 (a VRE isolated from river water) and E. coli G1 (isolated from seagull feces) were used. Bacteria were grown overnight at 37° C. in Mueller-Hinton agar (MH—BioKar diagnostics, Allonne, France) prior to obtain be used in the subsequently described bioassays.
(§2) Antibacterial susceptibility testing. The minimum inhibitory concentration (MIC) values of the compounds of FIGS. 1D, 1E, 1G, 1H (equation i-iv) and 11 (equations v-x) were determined, in particular, by a broth microdilution technique, following the recommendations of the Clinical and Laboratory Standards Institute. Stock solutions of 10 mg/ml in DMSO were used to prepare in-test concentrations ranging from 2 to 256 μg/ml. Ciprofloxacin in the concentration range from 0.03125 to 16 μg/ml was used, in particular, as control drug in the experiment. The MIC was defined as the lowest concentration of compound that has inhibited the visible growth. The minimum bactericidal concentration (MBC) was determined by spreading on MH plates, 10 μL collected from the wells corresponding to the MIC and to higher concentrations, with further incubation for 24 h at 37° C.; the lowest concentration at which no growth occurred on MH was defined as the MBC.

The subject of a further test is E. faecalis W1 (VRE). Described as above. It counts as cell-based, Enterococcus faecalis. Conditions: E. faecalis W1 (VRE). As for the experimental part: as §1, §2
The subject of a further test is B. subtilis ATCC 6633. Described as above. It counts as cell-based, Bacillus subtilis. As for the experimental part:
as §1, §2

For a further test, the system named is P. aeruginosa ATCC 27853. As to the kind of experiment: Antibacterial susceptibility testing, broth microdilution (MIC). Type of test: cell-based, Pseudomonas aeruginosa. As to the method: as §1, §2
Another test deals with E. coli ATCC 25922. The description is as above. It counts as cell-based, Escherichia coli. As to the method:
as §1, §2

The subject of a further test is S. aureus B1 (MRSA). As to the kind of experiment: Antibacterial susceptibility testing, broth microdilution (MIC/MBC). Type of test: cell-based, Staphylococcus aureus. To be noted: S. aureus B1 (MRSA). As to the method: as §1, §2
The test system of another test is S. aureus ATCC 25923. Described as above. Type of test: cell-based, Staphylococcus aureus. As for the experimental part:
as §1, §2

Usually MIC stands for the smallest concentration in the dilution series that meets the test's criterion for growth inhibition. Take `CC(C)[C@@H]1NC(=O)[C@@H](C[C@]2(O)c3ccccc3N3C(=O)C(C)(C)N[C@H]32)n2c1nc1ccccc1c2=O` [FIG. 1I (eq. v), fiscalin C]: the minimal inhibitory concentration (MIC) with S. aureus B1 [1] (drug alone, S. aureus B1) was greater than 512 µg/mL. The “combined effect with ampicillin” value in the test on S. aureus B1 [1] (fiscalin C with ampicillin, S. aureus B1) is “indifferent”. The “combined effect with oxacillin” value with S. aureus B1 [1] (listed as Fiscalin C) was “synergistic effect”; with S. aureus B1 [1] (listed as fiscalin C), “clear synergistic effect”. The inhibition zone was 8 mm in the test on S. aureus B1 [2] (fiscalin C in combination with ampicillin) and 10 mm in the test with S. aureus B1 [2] (fiscalin C in combination with oxacillin). Besides, in the test with S. aureus B1 [2] (not in combination, MRSA isolate S. aureus B1), the “zone of inhibition on agar plates” value is listed as “neither fiscalin C, ampicillin or oxacillin produced any zone of inhibition”. Moreover, the “Minimum inhibitory concentration-MIC” value in the test with E. faecalis ATCC 29212, in the test on E. faecalis W1 (VRE), in the test on B. subtilis ATCC 6633, with P. aeruginosa ATCC 27853, with E. coli ATCC 25922 and with S. aureus B1 (MRSA) was greater than 256 µg/mL in each case. The “Minimum inhibitory concentration-MIC” value in the test with S. aureus ATCC 25923 was greater than 256 µg/mL.
